Source: US6472418B1, “Non-peptide NK1 receptors antagonists” (Warner-Lambert Company, priority 1998, dated 2002)

Each molecule was assayed against T1, Human NK1 Receptor (Homo sapiens, UniProt P25103) (assay: In Vitro Human NK1 Receptor Binding Assay ([125I]Bolton-Hunter substance P displacement, IM9 cells)). Conditions: Human lymphoma IM9 cells, [125I]Bolton-Hunter substance P; Table 3, array-synthesis products; read-out: IC50 (nM) hNK1.
T1 construct: endogenous in cells; host or cells: Human lymphoma IM9 cells (whole cells)
T1 sequence (P25103 whole entry): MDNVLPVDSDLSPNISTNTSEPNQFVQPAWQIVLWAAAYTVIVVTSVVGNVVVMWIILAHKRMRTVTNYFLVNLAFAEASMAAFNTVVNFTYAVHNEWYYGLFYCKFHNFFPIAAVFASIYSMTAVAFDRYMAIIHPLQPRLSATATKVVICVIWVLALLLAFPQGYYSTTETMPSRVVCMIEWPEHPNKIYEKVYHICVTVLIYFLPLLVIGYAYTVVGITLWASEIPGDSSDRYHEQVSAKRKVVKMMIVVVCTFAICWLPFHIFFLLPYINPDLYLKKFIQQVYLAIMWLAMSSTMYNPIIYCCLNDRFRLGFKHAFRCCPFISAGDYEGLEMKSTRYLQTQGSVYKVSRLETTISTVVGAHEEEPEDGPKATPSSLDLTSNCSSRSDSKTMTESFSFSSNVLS
Protocol: They have been evaluated in an NK1-receptor binding assay which is described below.
Human lymphoma IM9 cells were grown in RPMI 1640 culture medium supplemented with 10% fetal calf serum and 2 mM glutamine and maintained under an atmosphere of 5% CO2. Cells were passaged every 3-4 days by reseeding to a concentration of 4-8×10^6/40 ml per 175 cm^2 flask. Cells were harvested for experiments by centrifugation at 1000 g for 3 min. Pelleted cells were washed once by resuspension into assay buffer (50 mM Tris HCl pH 7.4, 3 mM MnCl2, 0.02% BSA, […] bacitracin, […] chymostatin, 2 mM phosphoramidon, […] leupeptin) and repeating the centrifugation step before resuspending at a concentration of 2.5×10^6 cells/mL assay buffer. Cells ([…]) were incubated with [^125I]Bolton-Hunter substance P (0.05-0.1 nM) in the presence and absence of varying concentrations of test compounds for 50 min at 21° C. Non-specific binding (10% of the total binding observed under these conditions) was defined by […] [Sar^9, Met(02)^11] substance P. Reactions were terminated by rapid filtration under vacuum onto GF\C filters presoaked in 0.2% PEI for 1-2 h, using a Brandel cell harvester. Filters were washed with 6×1 ml ice-cold Tris HCl (50 mM, pH 7.4) and radioactivity bound determined using a gamma couter. Results were analyzed using iterative curve fitting procedures in RS1 or Graphpad Inplot.

SMILES	IC50
O=C(NC1CCc2ccccc21)C(Cc1c[nH]c2ccccc12)NCc1cc2ccccc2o1 (stereo not drawn) [Example 262, 2-[(Benzofuran-2-ylmethyl)-amino]-N-indan-1-yl-3-(1H-indol-3-yl)-propionamide]	86 nM
O=C(NC(CO)CC1CCCCC1)C(Cc1c[nH]c2ccccc12)NCc1cc2ccccc2o1 (stereo not drawn) [Example 277, 2-[(Benzofuran-2-ylmethyl)-amino]-N-(2-cyclohexyl-1-hydroxymethyl-ethyl)-3-(1H-indol-3-yl)-propionamide]	2200 nM
O=C(NC1CCC(O)CC1)C(Cc1c[nH]c2ccccc12)NCc1cc2ccccc2o1 (stereo not drawn) [Example 273, 2-[(Benzofuran-2-ylmethyl)-amino]-N-(4-hydroxy-cyclohexyl)-3-(1H-indol-3-yl)-propionamide]	> 10000 nM
CCC(NC(=O)C(Cc1c[nH]c2ccccc12)NCc1cc2ccccc2o1)c1ccccc1 (stereo not drawn) [Example 259, 2-[(Benzofuran-2-ylmethyl)-amino]-3-(1H-indol-3-yl)-N-(1-phenyl-propyl)-propionamide]	21 nM
O=C(NCc1cccc(OC(F)(F)F)c1)C(Cc1c[nH]c2ccccc12)NCc1cc2ccccc2o1 (stereo not drawn) [Example 200, 2-[(Benzofuran-2-ylmethyl)-amino]-3-(1H-indol-3-yl)-N-(3-trifluoromethoxy-benzyl)-propionamide]	355 nM
O=C(NC1CCCc2ccccc21)C(Cc1c[nH]c2ccccc12)NCc1cc2ccccc2o1 (stereo not drawn) [Example 194, 2-[(Benzofuran-2-ylmethyl)-amino]-3-(1H-indol-3-yl)-N-(1,2,3,4-tetrahydro-naphthalen-1-yl)-propionamide]	703 nM
Nc1ccc(CNC(=O)C(Cc2c[nH]c3ccccc23)NCc2cc3ccccc3o2)cc1 (stereo not drawn) [Example 306, N-(4-Amino-benzyl)-2-[(benzofuran-2-ylmethyl)-amino]-3-(1H-indol-3-yl)-propionamide]	639 nM
O=C(NCCCc1ccccc1)C(Cc1c[nH]c2ccccc12)NCc1cc2ccccc2o1 (stereo not drawn) [Example 278, 2-[(Benzofuran-2-ylmethyl)-amino]-3-(1H-indol-3-yl)-N-(3-phenyl-propyl)-propionamide]	2380 nM

Same assay, conditions: Table 4; [125I]Bolton-Hunter substance P displacement, human IM9 cells; read-out: IC50 (nM) hNK1

SMILES	IC50
CC=C(C)CCC=C(C)CNC(C)(Cc1c[nH]c2ccccc12)C(=O)NC(C)c1ccccc1 (stereo not drawn) [compound 352, 2-(2,6-Dimethyl-octa-2,6-dienylamino)-3-(1H-indol-3-yl)-2-methyl-N-(1-phenyl-ethyl)-propionamide]	2210 nM
CNS(=O)(=O)c1cc(Cl)ccc1CNC(C)(Cc1c[nH]c2ccccc12)C(=O)NC(C)c1ccccc1 (stereo not drawn) [compound 330, 2-(4-Chloro-2-methylsulfamoyl-benzylamino)-3-(1H-indol-3-yl)-2-methyl-N-(1-phenyl-ethyl)-propionamide]	1100 nM
CC(NC(=O)C(C)(Cc1c[nH]c2ccccc12)NCc1ccc2c(c1)OCO2)c1ccccc1 (stereo not drawn) [compound 349, 2-[(Benzo[1,3]dioxol-5-ylmethyl)-amino]-3-(1H-indol-3-yl)-2-methyl-N-(1-phenyl-ethyl)-propionamide]	356 nM
CC(NC(=O)C(C)(Cc1c[nH]c2ccccc12)NCc1cccc(OCc2ccccc2)c1)c1ccccc1 (stereo not drawn) [compound 344, 2-(3-Benzyloxy-benzylamino)-3-(1H-indol-3-yl)-2-methyl-N-(1-phenyl-ethyl)-propionamide]	185 nM
CCCCCC(=Cc1ccccc1)CNC(C)(Cc1c[nH]c2ccccc12)C(=O)NC(C)c1ccccc1 (stereo not drawn) [compound 356, 3-(1H-Indol-3-yl)-2-methyl-2-(2-pentyl-3-phenyl-allylamino)-N-(1-phenyl-ethyl)-propionamide]	> 10000 nM
CC(NC(=O)C(C)(Cc1c[nH]c2ccccc12)NCc1cccs1)c1ccccc1 (stereo not drawn) [compound 357, 3-(1H-Indol-3-yl)-2-methyl-N-(1-phenyl-ethyl)-2-[(thiophen-2-ylmethyl)-amino]-propionamide]	548 nM

Same assay, conditions: Table 5; [125I]Bolton-Hunter substance P displacement, human IM9 cells; read-out: IC50 (nM) hNK1

SMILES	IC50
CC(NC(=O)C(Cc1c[nH]c2ccccc12)NCc1ccc(-c2ccccc2)cc1)c1ccccc1 (stereo not drawn) [compound 385]	1460 nM
COc1ccc(CNC(Cc2c[nH]c3ccccc23)C(=O)NC(C)c2ccccc2)cc1OC (stereo not drawn) [compound 397]	> 10000 nM
CC(C)C=CCC1=CCC(CNC(Cc2c[nH]c3ccccc23)C(=O)NC(C)c2ccccc2)CC1 (stereo not drawn) [compound 366]	4050 nM
CC(NC(=O)C(Cc1c[nH]c2ccccc12)NCC(=Cc1ccccc1)c1ccccc1)c1ccccc1 (stereo not drawn) [compound 376]	> 10000 nM
CC(NC(=O)C(Cc1c[nH]c2ccccc12)NCc1cccc(Cl)c1)c1ccccc1 (stereo not drawn) [compound 400]	13 nM
CC(NC(=O)C(Cc1c[nH]c2ccccc12)NCc1ccc(Oc2ccccc2)cc1)c1ccccc1 (stereo not drawn) [compound 384]	2350 nM
CC(NC(=O)C(Cc1c[nH]c2ccccc12)NCc1ccc2c(c1)OCO2)c1ccccc1 (stereo not drawn) [compound 386]	240 nM
CC(NC(=O)C(Cc1c[nH]c2ccccc12)NCc1ccc(-c2ccc([N+](=O)[O-])cc2)o1)c1ccccc1 (stereo not drawn) [compound 390]	50 nM

Same assay, conditions: human NK1 receptor, IM9 cells, [125I]Bolton-Hunter substance P; read-out: IC50 (nM) hNK1

SMILES	IC50
CN(C)c1cccc(C2(CNC(=O)C(C)(Cc3c[nH]c4ccccc34)NCc3cc4ccccc4o3)CCCC2)c1 (stereo not drawn) [compound 102, 2-[(Benzofuran-2-ylmethyl)-amino]-N-[1-(3-dimethylamino-phenyl)-cyclopentylmethyl]-3-(1H-indol-3-yl)-2-methyl-propionamide]	> 10000 nM
CC(Cc1c[nH]c2ccccc12)(NCc1cc2ccccc2o1)C(=O)NCCc1c[nH]cn1 (stereo not drawn) [compound 97, 2-[(Benzofuran-2-ylmethyl)-amino]-N-[2-(1H-imidazol-4-yl)-ethyl]-3-(1H-indol-3-yl)-2-methyl-propionamide]	> 10000 nM
CC(Cc1c[nH]c2ccccc12)(NCc1cc2ccccc2o1)C(=O)NCc1cccc(N)c1 (stereo not drawn) [compound 178, N-(3-Amino-benzyl)-2-[(benzofuran-2-ylmethyl)-amino]-3-(1H-indol-3-yl)-2-methyl-propionamide]	1370 nM
CC(NC(=O)C(C)(Cc1c[nH]c2ccccc12)NCc1cc2ccccc2o1)c1cccc(N)c1 (stereo not drawn) [compound 37, N-[1-(3-Amino-phenyl)-ethyl]-2-[(benzofuran-2-ylmethyl)-amino]-3-(1H-indol-3-yl)-2-methyl-propionamide]	364 nM
CC(Cc1c[nH]c2ccccc12)(NCc1cc2ccccc2o1)C(=O)NCCc1ccccc1 (stereo not drawn) [compound 53, 2-[(Benzofuran-2-ylmethyl)-amino]-3-(1H-indol-3-yl)-2-methyl-N-phenethyl-propionamide]	262 nM
CC(Cc1c[nH]c2ccccc12)(NCc1cc2ccccc2o1)C(=O)NCC1Cc2ccccc2CN1 (stereo not drawn) [compound 108, 2-[(Benzofuran-2-ylmethyl)-amino]-3-(1H-indol-3-yl)-2-methyl-N-(1,2,3,4-tetrahydro-isoquinolin-3-ylmethyl)-propionamide]	4570 nM
CC(Cc1c[nH]c2ccccc12)(NCc1cc2ccccc2o1)C(=O)NCc1ccc(O)c(O)c1 (stereo not drawn) [compound 182, 2-[(Benzofuran-2-ylmethyl)-amino]-N-(3,4-dihydroxy-benzyl)-3-(1H-indol-3-yl)-2-methyl-propionamide]	> 10000 nM
CC(Cc1c[nH]c2ccccc12)(NCc1cc2ccccc2o1)C(=O)NCC1(c2ccccc2)OCCO1 (stereo not drawn) [compound 105]	> 10000 nM
CC(Cc1c[nH]c2ccccc12)(NCc1cc2ccccc2o1)C(=O)NC1(CN2CCCCC2)CCCCC1 (stereo not drawn) [compound 89, 2-[(Benzofuran-2-ylmethyl)-amino]-3-(1H-indol-3-yl)-2-methyl-N-(1-piperidin-1-ylmethyl-cyclohexyl)-propionamide]	6740 nM
CC(Cc1c[nH]c2ccccc12)(NCc1cc2ccccc2o1)C(=O)NCC(c1ccccc1)c1ccccc1 (stereo not drawn) [compound 98, 2-[(Benzofuran-2-ylmethyl)-amino]-N-(2,2-diphenyl-ethyl)-3-(1H-indol-3-yl)-2-methyl-propionamide]	> 10000 nM
CC(Cc1c[nH]c2ccccc12)(NCc1cc2ccccc2o1)C(=O)NC1CCCc2ccccc21 (stereo not drawn) [compound 148, 2-[(Benzofuran-2-ylmethyl)-amino]-3-(1H-indol-3-yl)-2-methyl-N-(1,2,3,4-tetrahydro-naphthalen-1-yl)-propionamide]	> 10000 nM
CC(Cc1c[nH]c2ccccc12)(NCc1cc2ccccc2o1)C(=O)NCC(=O)c1nc[nH]c1N (stereo not drawn) [compound 95, N-[2-(5-Amino-1H-imidazol-4-yl)-2-oxo-ethyl]-2-[(benzofuran-2-ylmethyl)-amino]-3-(1H-indol-3-yl)-2-methyl-propionamide]	> 10000 nM
CC(Cc1c[nH]c2ccccc12)(NCc1cc2ccccc2o1)C(=O)NCC(c1ccccc1)c1ccccn1 (stereo not drawn) [compound 80, 2-[(Benzofuran-2-ylmethyl)-amino]-3-(1H-indol-3-yl)-2-methyl-N-(2-phenyl-2-pyridin-2-yl-ethyl)-propionamide]	> 10000 nM
CC(Cc1c[nH]c2ccccc12)(NCc1cc2ccccc2o1)C(=O)NCC(=O)c1ccccc1 (stereo not drawn) [compound 163, 2-[(Benzofuran-2-ylmethyl)-amino]-3-(1H-indol-3-yl)-2-methyl-N-(2-oxo-2-phenyl-ethyl)-propionamide]	166 nM
